Experimental data reported in patent publication EP3928779A1 (Chugai Seiyaku Kabushiki Kaisha, priority 2014, dated 2016).

System: rat small-intestinal brush border membrane vesicles
Experiment: Inhibitory effect on 33PO4 uptake into rat small-intestinal brush border membrane vesicles (rapid filtration method)
Format: biochemical
Settings: 33PO4 uptake into rat small-intestinal BBMVs; test compound 1 µM; reacted for 60 seconds
Procedure: Brush border membrane vesicles (BBMVs) were prepared using the upper region of the small intestine of each Wistar female rat (4-5 weeks old). […] The ^33PO4 transport activity of the small-intestinal BBMVs was determined by the rapid filtration method. […] Then, ice-cold buffer C (110 mM NaCl, 1 mM KH2PO4, and 10 mM HEPES (pH 7.5)) was added to each reaction mixture, which was immediately suctionfiltered through a Millipore filter. The filter was washed with buffer C, and each sample was then dissolved in a liquid scintillator. The amount of ^33PO4 uptake into BBMVs was measured using a liquid scintillation counter. […]

| Compound | Rate of uptake inhibition (%) (1 µM) |
| --- | --- |
| Cc1c(Cl)ncnc1-c1cc(Cl)ccc1NC(=O)C1=C(O)[C@H](C(C)(C)C)N(C)N(Cc2ccc(OCCN3CCOCC3)c(F)c2F)C1=O [Example 275] | 42 |
| CC(=O)N(C)CCN(C)CCOc1ccc(CN2C(=O)C(C(=O)Nc3ccc(C(F)(F)F)cc3-c3cc(C(F)(F)F)ncn3)=C(O)C3(CCC3)N2C)c(F)c1F [Example 354] | 31 |
| CN1N(Cc2ccc(OCCN3CCN(S(C)(=O)=O)CC3)c(F)c2F)C(=O)C(C(=O)Nc2ccc(C(F)(F)F)cc2-c2cc(C(F)(F)F)ncn2)=C(O)C12CCCC2 [Example 379] | 37 |
| CC(C)[C@H]1C(O)=C(C(=O)Nc2ccc(C(F)(F)F)cc2-c2cc(C(F)(F)F)ncn2)C(=O)N(Cc2cccc(F)c2F)N1C [Example 252] | 53 |
| C[C@]12CCCN1N(Cc1cccc(F)c1F)C(=O)C(C(=O)Nc1ccc(Br)cc1-c1cc(C(F)(F)F)ncn1)=C2O [Example 64] | 77 |
| C[C@]12CCCN1N(Cc1ccc(F)cc1F)C(=O)C(C(=O)Nc1ccc(C(F)(F)F)cc1-c1ccc(C(F)(F)F)nc1)=C2O [Example 173] | 73 |
| C[C@]12CCCN1N(Cc1cccc(F)c1Cl)C(=O)C(C(=O)Nc1cc(F)c(Br)c(F)c1)=C2O [Example 174] | 87 |
| CN1[C@@H](C(C)(C)C)C(O)=C(C(=O)Nc2ccc(Cl)cc2-c2cc(C(F)(F)F)ncn2)C(=O)N1Cc1ccc(OCCN2CCOCC2)c(F)c1F [Example 265, (3S)-3-tert-Butyl-N-[4-chloro-2-[6-(trinuoromethyl)pyrimidin-4-yl]phenyl]-1-[[2,3-difluoro-4-(2-morpholin-4-ylethoxy)phenyl]methyl]-4-hydroxy-2-methyl-6-oxo-3H-pyridazine-5-carboxamide] | 52 |
| C[C@]12CCCN1N(Cc1c(F)cc(OCCCCCCOC[C@@H](O)CO)cc1F)C(=O)C(C(=O)Nc1ccc(C(F)(F)F)cc1-c1ccc(C(F)(F)F)nc1)=C2O [Example 154] | 73 |
| COc1cncc(-c2cc(C(F)(F)F)ccc2NC(=O)C2=C(O)[C@@]3(C)CCCN3N(Cc3cccc(F)c3F)C2=O)c1 [Example 81] | 74 |
| CN(C[C@H](O)[C@@H](O)[C@H](O)[C@H](O)CO)C(=O)CCCOc1ccc(CN2C(=O)C(C(=O)Nc3ccc(C(F)(F)F)cc3-c3cc(C(F)(F)F)ncn3)=C(O)C3(CCCC3)N2C)c(F)c1F [Example 418, 7-[[2,3-Difluoro-4-[4-[methyl-[(2S,3R,4R,5R)-2,3,4,5,6-pentahydroxyhexyl]amino]-4-oxobutoxy]phenyl]methyl]-10-hydroxy-6-methyl-8-oxo-N-[4-(trifluoromethyl)-2-[6-(trifluoromethyl)pyrimidin-4-yl]phenyl]-6,7-diazaspiro[4.5]dec-9-ene-9-carboxamide] | 29 |
| COCCOc1cc(NC(=O)C2=C(O)[C@@]3(C)CCCN3N(Cc3cccc(F)c3F)C2=O)c(-c2cccc(OC)c2OC)cc1C(F)(F)F [Example 92] | 81 |
| C[C@]12CCCN1N(Cc1ccc(C#CCOCCCCO)c(F)c1F)C(=O)C(C(=O)Nc1ccc(C(F)(F)F)cc1-c1ccc(C(F)(F)F)nc1)=C2O [Example 128] | 72 |
| C[C@]12CCCN1N(Cc1cc(F)cc(F)c1)C(=O)C(C(=O)Nc1ccc(C(F)(F)F)cc1-c1cc(C(F)(F)F)ncn1)=C2O [Example 213] | 79 |
| Cc1cc(NC(=O)C2=C(O)[C@@H]3CCCN3N(Cc3cccc(F)c3)C2=O)c(C(F)(F)F)o1 [Example 1, (4aS)-1-[(3-Fluorophenyl)methyl]-4-hydroxy-N-[5-methyl-2-(trifluoromethyl)furan-3-yl]-2-oxo-4a,5,6,7-tetrahydropyrrolo[1,2-b]pyridazine-3-carboxamide] | 28 |
| CN1N(Cc2cccc(F)c2F)C(=O)C(C(=O)Nc2ccc(C(F)(F)F)cc2-c2cc(C#N)ncn2)=C(O)C1(C)C [Example 303] | 42 |
| C[C@]12CCCN1N(Cc1ccc(F)c(F)c1)C(=O)C(C(=O)Nc1cc(F)c(Br)c(F)c1)=C2O [Example 191] | 87 |
| CN1N(Cc2ccc(OCCN3CCOCC3)c(F)c2F)C(=O)C(C(=O)Nc2ccc(Cl)cc2-c2cc(C(F)(F)F)ncn2)=C(O)C12CCCCC2 [Example 297] | 36 |
| Cc1nc(NC(=O)C2=C(O)C3(CCCC3)N(C)N(Cc3cccc(F)c3F)C2=O)ccc1Br [Example 262] | 43 |
| C[C@]12CCCN1N(Cc1cccc(F)c1F)C(=O)C(C(=O)Nc1ccc(C(F)(F)F)cc1-c1ncnc(C#N)c1Cl)=C2O [Example 23] | 84 |
| Cc1cc(NC(=O)C2=C(O)[C@@H]3CCC(C)(C)N3N(Cc3cccc(F)c3)C2=O)c(C(F)(F)F)o1 [Example 4, (4aS)-1-[(3-Fluorophenyl)methyl]-4-hydroxy-7,7-dimethyl-N-[5-methyl-2-(trifluoromethyl)furan-3-yl]-2-oxo-5.6-dihydro-4aH-pyrrolo[1,2-b]pyridazine-3-carboxamide] | 32 |
| CN1CCN(CCOc2ccc(CN3C(=O)C(C(=O)Nc4ccc(C(F)(F)F)cc4-c4cc(C(F)(F)F)ncn4)=C(O)C4(CCC4)N3C)c(F)c2F)CC1=O [Example 359] | 37 |

| Compound | Rate of uptake inhibition (%) (1 µM) |
| --- | --- |
| Cc1nc(NC(=O)C2=C(O)C3(CCC3)N(C)N(Cc3cccc(F)c3F)C2=O)ccc1Br [Example 259] | 52 |
| C[C@]12CCCN1N(Cc1cccc(Cl)c1)C(=O)C(C(=O)Nc1ccc(C(F)(F)F)cc1-c1ccc(C(F)(F)F)nc1)=C2O [Example 169] | 73 |
| CN1N(Cc2ccc(OCCN3CCOCC3)c(F)c2F)C(=O)C(C(=O)Nc2ccc(C(F)(F)F)cc2-c2ncnc(C(F)(F)F)c2Cl)=C(O)C12CCC2 [Example 284] | 46 |
| C[C@@H]1COC[C@H](C)N1CCOc1ccc(CN2C(=O)C(C(=O)Nc3ccc(C(F)(F)F)cc3-c3cc(C(F)(F)F)ncn3)=C(O)C3(CCCC3)N2C)c(F)c1F [Example 370] | 41 |
| C[C@]12CCCN1N(Cc1ccccc1Cl)C(=O)C(C(=O)Nc1ccc(C(F)(F)F)cc1-c1cc(C(F)(F)F)ncn1)=C2O [Example 180] | 75 |
| Cc1cccc(CN2C(=O)C(C(=O)Nc3ccc(C(F)(F)F)cc3-c3cc(C(F)(F)F)ncn3)=C(O)[C@@]3(C)CCCN23)c1 [Example 186] | 88 |
| (4aS)-1-[(3-Fluorophenyl)methyl]-4-hydroxy-4a-methyl-N-[5-methyl-2-(trifluoromethyl)furan-3-yl]-2-oxo-6,7-dihydro-5H-pyrrolo[1,2-b]pyridazine-3-carboxamide [Example 8] | 37 |
| COc1cccc(-c2cc(C(F)(F)F)ccc2NC(=O)C2=C(O)[C@@]3(C)CCCN3N(Cc3cccc(F)c3F)C2=O)n1 [Example 93] | 56 |
| CC(C)[C@H]1C(O)=C(C(=O)Nc2ccc(Cl)cc2-c2ccc(C(F)(F)F)nc2)C(=O)N(Cc2ccc(OCCN3CCOCC3)c(F)c2F)N1C [Example 281] | 41 |
| COCCN(C)CCOCCOCCOCCOc1ccc(CN2C(=O)C(C(=O)Nc3ccc(C(F)(F)F)cc3-c3cc(C(F)(F)F)ncn3)=C(O)C3(CCCC3)N2C)c(F)c1F [Example 431] | 26 |
| COCC(C)(C)N(C)CCOc1ccc(CN2C(=O)C(C(=O)Nc3ccc(C(F)(F)F)cc3-c3cc(C(F)(F)F)ncn3)=C(O)C3(CCC3)N2C)c(F)c1F [Example 349] | 55 |
| Cc1nc(NC(=O)C2=C(O)[C@H](C(C)(C)C)N(C)N(Cc3cccc(F)c3F)C2=O)ccc1Br [Example 241] | 86 |
| C[C@]12CCCN1N(Cc1ccc(C#CCN3CCCC3=O)c(F)c1F)C(=O)C(C(=O)Nc1ccc(Br)c(F)c1)=C2O [Example 131] | 87 |
| CN1N(Cc2ccc(OCCCCOCCCO)c(F)c2F)C(=O)C(C(=O)Nc2ccc(C(F)(F)F)cc2-c2cc(C(F)(F)F)ncn2)=C(O)C12CCCC2 [Example 399] | 42 |
| CSc1ccc(-c2cc(C(F)(F)F)ccc2NC(=O)C2=C(O)C3(CCCC3)N(C)N(Cc3ccc(OCCN4CCOCC4)c(F)c3F)C2=O)cn1 [Example 289] | 55 |
| COC(=O)CN(C)CCOc1ccc(CN2C(=O)C(C(=O)Nc3ccc(C(F)(F)F)cc3-c3cc(C(F)(F)F)ncn3)=C(O)C3(CCCC3)N2C)c(F)c1F [Example 368] | 26 |
| CN1N(Cc2ccc(OCCCCCOC[C@H](O)CO)c(F)c2F)C(=O)C(C(=O)Nc2ccc(C(F)(F)F)cc2-c2cc(C(F)(F)F)ncn2)=C(O)C12CCCC2 [Example 394] | 45 |
| COCCN(C)CCN(c1ccc(CN2C(=O)C(C(=O)Nc3ccc(C(F)(F)F)cc3-c3cc(C(F)(F)F)ncn3)=C(O)C3(CCCC3)N2C)c(F)c1F)C(C)C [Example 445] | 29 |
| CN1N(Cc2ccc(OCCCOC[C@H](O)CO)c(F)c2F)C(=O)C(C(=O)Nc2ccc(C(F)(F)F)cc2-c2cc(C(F)(F)F)ncn2)=C(O)C12CCC2 [Example 389] | 29 |
| C[C@]12CCCN1N(Cc1cccc(Cl)c1F)C(=O)C(C(=O)Nc1ccc(C(F)(F)F)cc1-c1ccc(C(F)(F)F)nc1)=C2O [Example 198] | 75 |
| CN1N(Cc2cccc(F)c2F)C(=O)C(C(=O)Nc2ccc(Cl)cc2-c2ccc(C(F)(F)F)nc2)=C(O)C1(C)C [Example 309] | 68 |
| C[C@]12CCCN1N(Cc1cccc(F)c1F)C(=O)C(C(=O)Nc1ccc(C(F)(F)F)cc1-c1ccc(C(F)(F)F)nc1Br)=C2O [Example 85] | 71 |
